Source: US20080255121A1, “Combination Drug for Treating Autoimmune Disease” (DAINIPPON SUMITOMO PHARMA CO., LTD., priority 2004, published 2008)
“And” between values parts separate entries of the source, which are not always exact repeats. Identical values can stand only once.

Assays:
[1] = system: adjuvant-induced arthritis rats; test: Combination effect on adjuvant-induced arthritis, joint destruction score by soft X-ray (Example 20); assay type: in vivo, rat
Experimental: Combination effect for adjuvant-induced arthritic rats was examined in the same manner as in Example 17.
Euthanasia was carried out for all the rats by aspiration of high concentration carbon dioxide after the last administration. Both the hind paws were cut off at the middle point of […]. Both the hind paws were fixed with 10% neutral buffered formalin liquid. […] The degree of joint destruction was recorded with a score. Observed sites were three points of the tibia, calcaneum and tarsal bone, and the possible maximum score was 12.
1: Minimum destruction of joints and bones and new formation of cartilages
2: Mild destruction of joints and bones and new formation and light ossification of cartilages
3: Moderate destruction of joints and bones and ossification
4: Severe destruction and deformation of joints and bones and intense ossification

[2] = system: experimental allergic encephalomyelitis mice; test: Experimental allergic encephalomyelitis, Compound (I); assay type: in vivo
From the text: The severity of the condition was indicated as a score (disease score) according to the following criteria.
0.5: Slight paralysis of tail
2: Light paralysis of hind paw
3: Medium to intense paralysis of hind paw or light forelimb paralysis
4: Complete paralysis of hind paw or medium to intense paralysis of forelimb
5: Paralysis of four limbs or toward death period
In the prednisolone administered group as a positive control, prednisolone was suspended in 0.5% methylcellulose solution to prepare a liquid of 0.3 mg/ml for administration and 0.1 ml per 10 g mouse weight was orally administered. In a control group, only 0.5% methylcellulose solution was […] administered. The administration was started on the sensitization day and carried out once a day for consecutive 40 days.

[3] = Dose 20 mg/kg oral once a day 40 days
[4] = Dose 40 mg/kg oral once a day 40 days

C[C@@H](c1ccc(-c2ccccc2)c(F)c1)c1cc(/N=C(/N)N2CCOCC2)on1 [Compound (I), 3-[(1S)-1-(2-fluorobiphenyl-4-yl)ethyl]-5-{[amino(morpholin-4-yl)methylene]amino}isoxazole]
joint destruction score of the left hind paw, representative individual which showed an average score in the group ([1]; Compound (I) 40 mg/kg and/or methotrexate 0.06 mg/kg, control score 3, maximum 12): 1 | joint destruction score of the right hind paw, representative individual which showed an average score in the group ([1]; Compound (I) 40 mg/kg and/or methotrexate 0.06 mg/kg, control score 10, maximum 12): 5 | joint destruction of right and left hind paws ([1]; Compound (I) 20, 40, 80 mg/kg in combination with methotrexate 0.06 mg/kg, 17 days): dose-dependently and conspicuously enhanced joint destruction suppressing effect of methotrexate | joint destruction of right and left hind paws ([1]; only Compound (I) 20, 40, 80 mg/kg oral once a day 17 days): dose-dependently showed joint destruction suppressing effect | disease score ([2]; 20, 40, 80 mg/kg oral once a day 40 days, FIG. 13): suppressed the disease score at any dose | Death Rate [2, 3]: 0/10 | Onset Rate [2, 3]: 8/10 | Death Rate [2, 4]: 0/10 | Onset Rate [2, 4]: 7/10 | Onset Rate ([2]; Dose 80 mg/kg oral once a day 40 days): 8/10 | Death Rate ([2]; Dose 80 mg/kg oral once a day 40 days, 80 mg/kg): 1 of 10 and 1/10
